Data as given in paper PMC8426299, “Effect of severe renal impairment on the pharmacokinetics of brigatinib” (Investigational New Drugs, 2021).
“Also recorded” adds a separate entry of the source. Like-named read-outs stand apart in the source and are kept apart here.

Tests used:
[1] = Plasma protein binding of brigatinib by rapid equilibrium dialysis (RED) of participants' plasma samples; format: in vitro ADME, human; details: human, plasma samples of dosed participants, averaged over 2, 8, 24 h postdose, read-out: overall mean (SD) fraction unbound (converted)
Method: (§1) Blood samples were collected at 2, 8, and 24 h after brigatinib administration to determine the plasma protein binding of brigatinib.
(§2) Free brigatinib in plasma samples was separated from protein-bound brigatinib by dialyzing the samples across a semipermeable dialysis membrane (8000-Da mass cutoff) using Thermo Scientific™ Single-Use RED (rapid equilibrium dialysis) Plates. For each RED dialysis unit, an aliquot (200 µL) of plasma was transferred into the donor chamber and an aliquot (350 µL) of warm (37 °C) phosphate buffered saline (PBS) was transferred into the receiver chamber of the dialysis unit. The RED devices were incubated at 37 °C with gentle shaking (250 rpm on a rotator shaker) for six hours. A 125-µL aliquot of plasma and 150-µL aliquot of PBS were removed from the dialysis unit and matrix-matched to a final composition of 50:50 (v:v) plasma:PBS, in Rain-X® treated 96-well plates. The matrix-matched samples were immediately frozen at − 80 °C. The protein binding assay and sample analysis were conducted at Charles River Laboratories, Inc. (Worcester, MA, USA). Samples were analyzed for brigatinib concentrations using liquid chromatography with tandem mass spectrometry (LC-MS/MS) methods that have been previously reported using a dual-range assay with a lower limit of quantitation of 0.100 ng/mL and an upper limit of quantitation of 500 ng/mL.
(§3) Individual participant plasma concentration-time profiles were analyzed via noncompartmental analysis methods using Phoenix WinNonlin (version 6.4) to estimate PK parameters. Plasma PK parameters calculated for brigatinib included maximum observed plasma concentration (Cmax); Tmax; area under the plasma concentration-time curve from time zero to the time of the last measurable concentration (AUC0 − last); AUC from time zero to infinity (AUC0−∞); terminal elimination half-life (t1/2); apparent oral clearance (CL/F); and apparent volume of distribution (V/F). The fraction of unbound brigatinib in plasma was determined using the following formula: % free (unbound) = [free brigatinib concentration measured in buffer after RED]/[total concentration measured in plasma] X 100. Unbound brigatinib plasma PK parameters (except unbound CL/F and V/F, which were calculated as total CL/F or total V/F divided by the overall mean fraction unbound) were calculated using the following formula: unbound PK parameter = (parameter based on total concentrations) x (individual participant’s overall mean fraction unbound value). Urinary PK parameters included the amount of brigatinib excreted from time zero to time t (Ae0 − t,), fraction of the dose excreted (%) from time zero to time t (Fe0 − t), and renal clearance (CLR).

plasma protein = test: as above; format: in vitro ADME, human
Method: as §1, §2, §3

[2] = Urinary pharmacokinetics after single oral dose of brigatinib 90 mg; format: in vivo, human; details: for CL renal: human, oral, 90 mg; for CL renal / Ae0–168, Range / Ae0–168, amount of brigatinib excreted from time zero to 168 hours, mean (SD) / Fe0–168, Range: urine
Method: Blood samples were collected before brigatinib administration (predose) and at 0.5, 1, 1.5, 2, 2.5, 3, 4, 6, 8, 12, 24, 36, 48, 60, 72, 96, 120, 144, and 168 h after brigatinib administration to determine plasma brigatinib concentrations. Urine was collected predose and during intervals (0–8, 8–12, 12–24, 24–48, 48–72, 72–96, 96–120, and 120–168 h) after brigatinib administration to determine urine brigatinib concentrations. Urine samples were subsequently diluted 50:50 (v:v) urine:isopropanol at the clinical site.
Plasma and urine samples were analyzed by Charles River Laboratories, Inc. (Worcester, MA, USA) by LC-MS/MS, as previously reported. Plasma samples were analyzed using a dual-range assay with a lower limit of quantitation of 0.100 ng/mL and an upper limit of 2500 ng/mL [11]. Urine samples were analyzed using a single-range assay with a lower limit of quantitation of 25.0 ng/mL and upper limit of 2500 ng/mL [11].
as §3

[3] = system: ALK-positive non–small cell lung cancer (NSCLC); parameters: method as in PMID 31756496; details: cited from earlier work
ALK + NSCLC = system: ALK + NSCLC; parameters: method as in PMID 32780660; details: cited from earlier work
[4] = cited from earlier work
[5] = parameters: method as in earlier work; details: cited from earlier work
[6] = system: cytochrome P450 (CYP) 3A4; parameters: method as in ref 5, 11 = [5]; 5. Alunbrig brigatinib [summary of product characteristics] (2020) Takeda Pharmaceutical Company Limited. https://www.alunbrig.com/assets/pi.pdf . Accessed 9 Mar 2021 || [11]; PMID 31287236; doi:10.1002/cpdd.723; 11. Tugnait M Gupta N Hanley MJ Sonnichsen D Kerstein D Dorer DJ Venkatakrishnan K Narasimhan N Effects of strong CYP2C8 or CYP3A inhibition and CYP3A induction on the pharmacokinetics of brigatinib; details: in vitro; cited from earlier work
[7] = parameters: method as in ref 11 = [11]; PMID 31287236; doi:10.1002/cpdd.723; 11. Tugnait M Gupta N Hanley MJ Sonnichsen D Kerstein D Dorer DJ Venkatakrishnan K Narasimhan N Effects of strong CYP2C8 or CYP3A inhibition and CYP3A induction on the pharmacokinetics of brigatinib; details: cited from earlier work
[8] = parameters: method as in PMID 32816246; details: eGFR 30 to < 90 mL/min/1.73 m^2; population PK analyses; cited from earlier work
[9] = severe renal impairment vs normal renal function
[10] = NSCLC progressed on crizotinib, 180 mg qd with seven-day lead-in at 90 mg, median follow-up 24 months
[11] = patients with baseline brain metastases
[12] = brigatinib vs crizotinib, P < 0.0001

COc1cc(N2CCC(N3CCN(C)CC3)CC2)ccc1Nc1ncc(Cl)c(Nc2ccccc2P(C)(C)=O)n1 [brigatinib]
fraction unbound at 6 h ([1]; healthy volunteers with normal renal function): 0.09 | fraction unbound at 6 h ([1]; patients with severe renal impairment): 0.08 | concentration dependence of protein binding (plasma protein; mean fraction unbound at 2, 8, 24 h postdose, both renal function groups): not concentration-dependent | effect of severe renal impairment on brigatinib plasma protein binding (plasma protein; [9]): no effect | CL renal ([2]; Normal Renal Function (n=8), read-out: CLR, Range): 27.5 to 63.7 mL/min | CL renal ([2]; Normal Renal Function (n=8), read-out: CLR, renal clearance, mean (SD)): 41.5 mL/min | CL renal ([2]; Severe Renal Impairment (n=8), read-out: CLR, Range): 5.4 to 13.4 mL/min | CL renal ([2]; Severe Renal Impairment (n=8), read-out: CLR, renal clearance, mean (SD)): 9.17 mL/min | renal clearance as share of overall clearance of brigatinib ([2]; in vivo): approximately 25% | renal clearance of unbound brigatinib, fold lower ([2]; severe renal impairment compared with normal renal function): approximately five-fold | reduction of fraction of dose excreted in urine 0 to 168 h [2, 9]: approximately 50% | nonrenal clearance, percent lower ([2]; severe renal impairment vs normal renal function, derived from renal clearance share): approximately 50% | Ae0–168, Range ([2]; Normal Renal Function (n=8)): 11.58 to 21.77 mg | Ae0–168, amount of brigatinib excreted from time zero to 168 hours, mean (SD) ([2]; Normal Renal Function (n=8)): 16.90 (3.57) mg | Fe0–168, Range ([2]; Normal Renal Function (n=8)): 12.9–24.2% | Ae0–168, Range ([2]; Severe Renal Impairment (n=7)): 3.92 to 14.36 mg | Ae0–168, amount of brigatinib excreted from time zero to 168 hours, mean (SD) ([2]; Severe Renal Impairment (n=7)): 7.58 (3.77) mg | Fe0–168, Range ([2]; Severe Renal Impairment (n=7)): 4.36–16.0% | independent review committee-assessed confirmed objective response rate (ORR) [3, 10]: 56% | median progression-free survival (PFS) [3, 10]: 16.7 months | confirmed intracranial ORR [3, 11]: 67% | median intracranial PFS [3, 11]: 18.4 months | 24-month PFS, blinded independent review committee-assessed (ALK + NSCLC; ALK inhibitor-naive patients): 48% | 24-month PFS, investigator-assessed (ALK + NSCLC; ALK inhibitor-naive patients): 56% | PFS hazard ratio [95 % CI], blinded independent review committee-assessed (ALK + NSCLC; [12]): 0.49 | PFS hazard ratio [95 % CI], investigator-assessed (ALK + NSCLC; [12]): 0.43 [0.31–0.61] | dose proportionality / linearity of systemic exposure [4]: dose proportional over the dose range of 60 mg to 240 mg qd; also recorded: dose-linear and time-independent PK | geometric mean accumulation ratio after repeat dosing [4]: 1.9 to 2.4 | oral dose excreted unchanged in the urine [4]: approximately 25% | median time to reach maximum plasma concentration (Tmax) ([4]; postdose): 1 to 3 h | administered dose recovered in feces [5]: 65% | administered dose recovered in urine [5]: 25% | unchanged brigatinib as share of total radioactivity in feces [5]: 41% | unchanged brigatinib as share of total radioactivity in urine [5]: 86% | contribution of CYP3A4 to metabolism [6]: primarily metabolized | decrease of systemic exposure (AUC) ([7]; coadministration of strong CYP3A inducers): 80% | increase of systemic exposure (AUC) ([7]; coadministration of strong CYP3A inhibitors): 101% | effect on systemic exposure (AUC) ([7]; coadministration with a strong inhibitor of CYP2C8): did not meaningfully affect | effect of mild or moderate renal impairment on brigatinib exposure / PK [8]: not associated with clinically meaningful effects on brigatinib PK; also recorded: not found to impact brigatinib exposure
